From paper PMC11345841, “Exploring 2-Sulfonylpyrimidine Warheads as Acrylamide Surrogates for Targeted Covalent Inhibition: A BTK Story” (Journal of Medicinal Chemistry, 2024)
Where two headings read alike, the source gives them in different places.

Tests used:
[1] = target: T1, ABL1-phosphorylated (Homo sapiens, UniProt P00519); assay: KINOMEscan ScanTK; assay type: binding
T1 construct: purchased Eurofins DiscoverX KINOMEscan (scanTK)

[2] = target: T2, EPHA4 (Homo sapiens, UniProt P54764); assay: KINOMEscan ScanTK; assay type: binding
T2 construct: purchased Eurofins DiscoverX KINOMEscan (scanTK)

[3] = target: T3, EPHA5 (Homo sapiens, UniProt P54756); assay: KINOMEscan ScanTK; assay type: binding
T3 construct: purchased Eurofins DiscoverX KINOMEscan (scanTK)

[4] = target: T4, ERBB3 (Homo sapiens, UniProt P21860); assay: KINOMEscan ScanTK; assay type: binding; conditions: for remaining binding at 1 µM / % of control difference from compound Ib at 1 µM: ERBB3
T4 construct: purchased Eurofins DiscoverX KINOMEscan (scanTK)

[5] = target: T5, FLT3(R834Q) (Homo sapiens, UniProt P36888, R834Q); assay: KINOMEscan ScanTK; assay type: binding
T5 construct: purchased Eurofins DiscoverX KINOMEscan (scanTK)
T5 sequence (P36888 27-993 R834Q): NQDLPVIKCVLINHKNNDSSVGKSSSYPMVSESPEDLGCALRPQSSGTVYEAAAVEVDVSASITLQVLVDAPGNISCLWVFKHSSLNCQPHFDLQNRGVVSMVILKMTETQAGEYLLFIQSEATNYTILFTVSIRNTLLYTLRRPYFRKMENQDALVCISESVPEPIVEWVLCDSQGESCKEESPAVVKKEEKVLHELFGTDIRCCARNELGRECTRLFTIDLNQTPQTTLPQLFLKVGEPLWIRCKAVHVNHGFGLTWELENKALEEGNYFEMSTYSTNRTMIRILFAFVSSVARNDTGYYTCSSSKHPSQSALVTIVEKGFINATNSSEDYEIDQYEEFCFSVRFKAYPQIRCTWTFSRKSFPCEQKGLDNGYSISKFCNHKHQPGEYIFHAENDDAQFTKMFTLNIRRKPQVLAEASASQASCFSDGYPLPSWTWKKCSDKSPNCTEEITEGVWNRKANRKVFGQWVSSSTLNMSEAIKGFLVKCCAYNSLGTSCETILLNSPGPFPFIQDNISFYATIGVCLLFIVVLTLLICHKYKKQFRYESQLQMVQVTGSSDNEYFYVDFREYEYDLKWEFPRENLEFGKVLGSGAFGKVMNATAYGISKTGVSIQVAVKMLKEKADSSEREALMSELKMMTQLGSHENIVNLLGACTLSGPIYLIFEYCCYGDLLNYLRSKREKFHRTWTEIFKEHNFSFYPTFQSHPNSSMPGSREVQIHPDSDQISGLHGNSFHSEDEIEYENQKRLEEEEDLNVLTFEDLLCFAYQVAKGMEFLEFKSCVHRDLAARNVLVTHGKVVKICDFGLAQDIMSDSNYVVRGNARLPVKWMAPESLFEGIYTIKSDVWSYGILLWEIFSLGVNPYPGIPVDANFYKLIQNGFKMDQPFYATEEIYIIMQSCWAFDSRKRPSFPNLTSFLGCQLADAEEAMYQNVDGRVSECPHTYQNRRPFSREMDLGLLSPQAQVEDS

[6] = target: T6, FRK (Homo sapiens, UniProt P42685); assay: KINOMEscan ScanTK; assay type: binding
T6 construct: purchased Eurofins DiscoverX KINOMEscan (scanTK)

[7] = target: T7, MET(Y1235D) (Homo sapiens, UniProt P08581, Y1235D); assay: KINOMEscan ScanTK; assay type: binding
T7 construct: purchased Eurofins DiscoverX KINOMEscan (scanTK)

[8] = target: T8, TIE1 (Homo sapiens, UniProt P35590); assay: KINOMEscan ScanTK; assay type: binding
T8 construct: purchased Eurofins DiscoverX KINOMEscan (scanTK)

[9] = target: T9, TRKB (Homo sapiens, UniProt Q16620); assay: KINOMEscan ScanTK; assay type: binding
T9 construct: purchased Eurofins DiscoverX KINOMEscan (scanTK)

[10] = target: T10, TYK2(JH2domain-pseudokinase) (Homo sapiens, UniProt P29597); assay: KINOMEscan ScanTK; assay type: binding; conditions: for difference in %Control versus Ib at 1 µM: read-out: % difference (compound - Ib %Control)
T10 construct: TYK2(JH2domain-pseudokinase); purchased Eurofins DiscoverX KINOMEscan (scanTK)

[11] = target: T11, EGFR(L747-E749del, A750P) (Homo sapiens, UniProt P00533, A750P/DEL747-749); assay: KINOMEscan ScanTK; assay type: binding
T11 construct: purchased Eurofins DiscoverX KINOMEscan (scanTK)

[12] = target: T12, EGFR(T790M) (Homo sapiens, UniProt P00533, T790M); assay: KINOMEscan ScanTK; assay type: binding
T12 construct: purchased Eurofins DiscoverX KINOMEscan (scanTK)

[13] = target: wild-type BTK (Homo sapiens, UniProt Q06187); assay: BTK in vitro activity assay (ADP-Glo, poly-Glu:Tyr phosphorylation, TCEP); conditions: for remaining activity at 0.1 µM: read-out: Remaining BTK activity (%)
[14] = @1000nM, TRKB, read-out: %Control
[15] = TRKB, read-out: %Control @1000nM

T9 sequence (Q16620 32-822): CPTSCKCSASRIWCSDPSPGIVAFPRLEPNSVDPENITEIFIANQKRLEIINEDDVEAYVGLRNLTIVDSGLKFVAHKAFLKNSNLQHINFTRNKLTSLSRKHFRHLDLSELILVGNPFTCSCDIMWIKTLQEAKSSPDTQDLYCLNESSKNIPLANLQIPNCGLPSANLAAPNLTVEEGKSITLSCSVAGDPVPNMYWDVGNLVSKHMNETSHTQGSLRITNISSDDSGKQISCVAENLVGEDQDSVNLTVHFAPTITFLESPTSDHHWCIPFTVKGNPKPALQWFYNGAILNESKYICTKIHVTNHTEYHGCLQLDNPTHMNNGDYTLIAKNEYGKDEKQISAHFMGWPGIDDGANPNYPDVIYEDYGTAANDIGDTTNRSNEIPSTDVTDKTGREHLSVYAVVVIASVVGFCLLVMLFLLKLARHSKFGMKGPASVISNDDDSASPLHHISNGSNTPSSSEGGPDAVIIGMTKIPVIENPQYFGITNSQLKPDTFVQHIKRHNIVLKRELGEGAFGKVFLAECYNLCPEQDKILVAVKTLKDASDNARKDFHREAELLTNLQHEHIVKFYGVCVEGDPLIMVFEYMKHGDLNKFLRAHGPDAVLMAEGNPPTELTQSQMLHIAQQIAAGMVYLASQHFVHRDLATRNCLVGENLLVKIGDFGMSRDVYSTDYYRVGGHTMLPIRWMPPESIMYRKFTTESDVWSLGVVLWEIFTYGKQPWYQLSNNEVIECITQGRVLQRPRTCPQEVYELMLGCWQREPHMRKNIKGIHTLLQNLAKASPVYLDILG
T11 sequence (P00533 with tags, fused parts or gaps DEL747-749/A750P limits assumed): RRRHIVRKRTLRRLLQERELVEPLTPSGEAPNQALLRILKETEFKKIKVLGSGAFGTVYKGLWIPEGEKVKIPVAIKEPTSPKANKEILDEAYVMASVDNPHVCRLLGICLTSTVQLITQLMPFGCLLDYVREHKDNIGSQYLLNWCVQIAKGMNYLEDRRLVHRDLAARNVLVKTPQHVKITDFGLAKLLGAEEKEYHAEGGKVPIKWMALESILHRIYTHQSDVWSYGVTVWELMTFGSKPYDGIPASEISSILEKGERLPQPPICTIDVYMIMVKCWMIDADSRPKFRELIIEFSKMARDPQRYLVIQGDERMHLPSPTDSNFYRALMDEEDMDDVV
T8 sequence (P35590 22-1138): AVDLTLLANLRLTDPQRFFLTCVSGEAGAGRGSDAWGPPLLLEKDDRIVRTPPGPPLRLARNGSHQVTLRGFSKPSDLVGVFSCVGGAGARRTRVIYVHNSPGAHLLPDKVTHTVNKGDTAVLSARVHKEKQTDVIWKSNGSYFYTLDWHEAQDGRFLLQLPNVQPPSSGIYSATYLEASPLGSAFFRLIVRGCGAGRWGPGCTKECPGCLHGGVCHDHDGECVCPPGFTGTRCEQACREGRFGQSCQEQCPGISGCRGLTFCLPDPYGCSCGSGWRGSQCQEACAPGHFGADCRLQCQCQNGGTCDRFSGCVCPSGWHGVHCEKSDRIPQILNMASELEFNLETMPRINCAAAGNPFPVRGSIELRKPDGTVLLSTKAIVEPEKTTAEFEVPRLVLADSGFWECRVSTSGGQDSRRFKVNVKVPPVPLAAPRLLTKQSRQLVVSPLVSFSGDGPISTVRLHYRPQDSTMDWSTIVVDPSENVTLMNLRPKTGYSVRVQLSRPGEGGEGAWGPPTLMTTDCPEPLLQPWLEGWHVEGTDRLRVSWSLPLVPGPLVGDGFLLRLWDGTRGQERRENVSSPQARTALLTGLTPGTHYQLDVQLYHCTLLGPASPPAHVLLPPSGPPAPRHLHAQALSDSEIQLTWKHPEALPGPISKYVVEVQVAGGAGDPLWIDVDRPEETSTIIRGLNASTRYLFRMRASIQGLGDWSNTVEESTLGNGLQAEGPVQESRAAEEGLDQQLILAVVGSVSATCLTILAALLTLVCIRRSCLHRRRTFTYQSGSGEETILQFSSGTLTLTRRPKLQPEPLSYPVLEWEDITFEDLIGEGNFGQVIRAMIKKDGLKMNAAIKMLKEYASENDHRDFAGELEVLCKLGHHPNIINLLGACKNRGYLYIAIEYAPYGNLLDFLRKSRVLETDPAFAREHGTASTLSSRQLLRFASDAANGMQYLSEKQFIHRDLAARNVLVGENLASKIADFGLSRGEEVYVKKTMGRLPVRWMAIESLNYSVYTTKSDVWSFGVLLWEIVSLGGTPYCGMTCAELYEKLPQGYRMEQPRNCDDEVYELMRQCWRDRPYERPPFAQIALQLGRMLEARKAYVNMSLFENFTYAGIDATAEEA
T4 sequence (P21860 20-1342): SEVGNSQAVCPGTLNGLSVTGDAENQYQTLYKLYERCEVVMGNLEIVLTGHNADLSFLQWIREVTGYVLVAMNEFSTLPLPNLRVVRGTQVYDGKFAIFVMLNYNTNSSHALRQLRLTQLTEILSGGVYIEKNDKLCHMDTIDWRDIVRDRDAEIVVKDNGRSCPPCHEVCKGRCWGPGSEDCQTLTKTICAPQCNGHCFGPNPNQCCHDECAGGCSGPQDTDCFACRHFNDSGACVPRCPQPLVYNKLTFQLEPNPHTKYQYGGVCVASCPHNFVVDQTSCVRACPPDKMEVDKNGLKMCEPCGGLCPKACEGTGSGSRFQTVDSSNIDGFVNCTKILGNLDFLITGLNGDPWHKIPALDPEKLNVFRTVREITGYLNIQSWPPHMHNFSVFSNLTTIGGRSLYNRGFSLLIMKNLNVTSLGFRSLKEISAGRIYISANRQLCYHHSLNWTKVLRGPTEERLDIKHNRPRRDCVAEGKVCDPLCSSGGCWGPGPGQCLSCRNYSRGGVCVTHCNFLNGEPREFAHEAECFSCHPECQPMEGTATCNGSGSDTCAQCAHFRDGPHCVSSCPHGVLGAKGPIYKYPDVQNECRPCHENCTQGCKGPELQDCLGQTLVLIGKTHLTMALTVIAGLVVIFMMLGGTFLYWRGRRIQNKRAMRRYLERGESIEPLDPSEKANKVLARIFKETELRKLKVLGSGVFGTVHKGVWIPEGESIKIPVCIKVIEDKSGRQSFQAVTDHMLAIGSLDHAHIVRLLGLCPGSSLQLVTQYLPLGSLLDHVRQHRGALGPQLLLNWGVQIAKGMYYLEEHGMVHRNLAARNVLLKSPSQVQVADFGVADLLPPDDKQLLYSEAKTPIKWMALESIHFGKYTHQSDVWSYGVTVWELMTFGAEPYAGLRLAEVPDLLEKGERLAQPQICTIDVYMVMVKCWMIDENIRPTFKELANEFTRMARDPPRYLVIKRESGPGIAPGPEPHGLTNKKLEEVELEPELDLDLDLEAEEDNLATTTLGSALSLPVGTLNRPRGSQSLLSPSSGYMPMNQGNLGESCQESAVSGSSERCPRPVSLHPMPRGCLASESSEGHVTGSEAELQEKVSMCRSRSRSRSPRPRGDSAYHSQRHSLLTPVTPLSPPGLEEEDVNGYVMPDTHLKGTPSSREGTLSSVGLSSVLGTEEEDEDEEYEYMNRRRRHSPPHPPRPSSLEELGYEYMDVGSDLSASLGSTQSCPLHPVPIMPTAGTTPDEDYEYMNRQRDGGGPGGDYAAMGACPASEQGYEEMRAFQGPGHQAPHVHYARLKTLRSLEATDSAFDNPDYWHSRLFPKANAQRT
T7 sequence (P08581 25-1390 Y1235D): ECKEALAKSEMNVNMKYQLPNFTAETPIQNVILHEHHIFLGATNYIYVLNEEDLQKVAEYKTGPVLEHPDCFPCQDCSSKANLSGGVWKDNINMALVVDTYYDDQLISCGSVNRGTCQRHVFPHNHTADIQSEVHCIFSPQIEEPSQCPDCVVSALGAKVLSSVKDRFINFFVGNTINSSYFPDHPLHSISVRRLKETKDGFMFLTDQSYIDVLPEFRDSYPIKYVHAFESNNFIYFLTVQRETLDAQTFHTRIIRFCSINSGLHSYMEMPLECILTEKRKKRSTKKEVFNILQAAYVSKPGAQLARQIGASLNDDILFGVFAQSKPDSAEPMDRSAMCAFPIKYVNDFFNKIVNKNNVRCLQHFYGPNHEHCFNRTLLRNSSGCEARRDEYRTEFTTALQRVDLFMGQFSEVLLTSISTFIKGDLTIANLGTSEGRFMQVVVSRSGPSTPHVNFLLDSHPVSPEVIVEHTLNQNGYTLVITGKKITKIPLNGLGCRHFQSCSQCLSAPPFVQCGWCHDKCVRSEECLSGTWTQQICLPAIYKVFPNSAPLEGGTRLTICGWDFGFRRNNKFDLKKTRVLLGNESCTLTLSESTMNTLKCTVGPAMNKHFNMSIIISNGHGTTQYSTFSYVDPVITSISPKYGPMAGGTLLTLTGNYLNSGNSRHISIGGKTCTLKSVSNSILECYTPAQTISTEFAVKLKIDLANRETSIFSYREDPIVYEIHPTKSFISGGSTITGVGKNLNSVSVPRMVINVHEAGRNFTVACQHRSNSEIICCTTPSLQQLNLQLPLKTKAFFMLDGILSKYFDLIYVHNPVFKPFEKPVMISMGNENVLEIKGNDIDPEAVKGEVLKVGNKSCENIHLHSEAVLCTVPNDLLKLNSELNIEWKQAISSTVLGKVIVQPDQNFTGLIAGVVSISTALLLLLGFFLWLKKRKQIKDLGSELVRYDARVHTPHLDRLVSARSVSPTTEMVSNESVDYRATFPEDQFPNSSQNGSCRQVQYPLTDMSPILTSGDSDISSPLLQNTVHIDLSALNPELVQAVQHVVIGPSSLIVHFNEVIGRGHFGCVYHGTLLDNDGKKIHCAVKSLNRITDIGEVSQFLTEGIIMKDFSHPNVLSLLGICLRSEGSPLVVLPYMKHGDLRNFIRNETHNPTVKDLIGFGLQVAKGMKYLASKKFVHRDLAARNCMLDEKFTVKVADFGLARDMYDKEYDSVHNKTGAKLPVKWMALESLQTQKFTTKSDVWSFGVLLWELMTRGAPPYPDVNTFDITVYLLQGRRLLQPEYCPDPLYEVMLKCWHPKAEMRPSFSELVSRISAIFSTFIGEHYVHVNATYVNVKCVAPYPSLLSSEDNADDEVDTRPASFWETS

remaining binding at 1 µM ([1]; @1000nM, read-out: %Control) [%]	remaining binding at 1 µM ([1]; read-out: %Control @1000nM) [%]	remaining binding at 1 µM ([2]; @1000nM, read-out: %Control) [%]	remaining binding at 1 µM ([2]; read-out: %Control @1000nM) [%]	remaining binding at 1 µM ([3]; @1000nM, read-out: %Control) [%]	remaining binding at 1 µM ([3]; read-out: %Control @1000nM) [%]	remaining binding at 1 µM ([4]; @1000nM, read-out: %Control) [%]	remaining binding at 1 µM ([4]; read-out: %Control @1000nM) [%]	remaining binding at 1 µM ([5]; @1000nM, read-out: %Control) [%]	remaining binding at 1 µM ([5]; read-out: %Control @1000nM) [%]	remaining binding at 1 µM ([6]; @1000nM, read-out: %Control) [%]	remaining binding at 1 µM ([6]; read-out: %Control @1000nM) [%]	remaining binding at 1 µM ([7]; @1000nM, read-out: %Control) [%]	remaining binding at 1 µM ([7]; read-out: %Control @1000nM) [%]	remaining binding at 1 µM ([8]; @1000nM, read-out: %Control) [%]	remaining binding at 1 µM ([8]; read-out: %Control @1000nM) [%]	remaining binding at 1 µM ([10]; @1000nM, read-out: %Control) [%]	remaining binding at 1 µM ([10]; read-out: %Control @1000nM) [%]	difference in %Control from compound Ib at 1 µM ([1]; @1000nM) [%]	difference in %Control versus compound Ib at 1 µM ([11]; @1000nM) [%]	SMILES	also measured
80	80	100	100	95	95	0	0	70	70	48	48	100	100	89	89	92	92	20	79.9	Cc1cnc(S(C)(=O)=O)nc1N1CCCC(n2nc(-c3ccc(Oc4ccccc4)cc3)c3c(N)ncnc32)C1 (stereo not shown) [Compound 8a, 1-(1-(5-Methyl-2-(methylsulfonyl)pyrimidin-4-yl)piperidin-3-yl)-3-(4-phenoxyphenyl)-1H-pyrazolo[3,4-d]pyrimidin-4-amine]	remaining binding at 1 µM ([11]; @1000nM, read-out: %Control): 83%; remaining binding at 1 µM ([11]; read-out: %Control @1000nM): 83%; difference in % of control versus compound Ib at 1 µM ([12]; @1000nM): 69.5%; remaining binding at 1 µM ([12]; @1000nM, read-out: %Control): 70%; remaining binding at 1 µM ([12]; read-out: %Control @1000nM): 70%; %Control difference from compound Ib at 1 µM ([2]; @1000nM): 9%; difference in %Control from compound Ib at 1 µM ([3]; @1000nM): -1%; % of control difference from compound Ib at 1 µM ([4]; @1000nM): 0%; difference in %Control versus compound Ib at 1 µM ([5]; @1000nM): 9%; difference in %Control versus compound Ib at 1 µM ([6]; @1000nM): 38.7%; difference in %Control versus compound Ib at 1 µM ([9]; @1000nM, TRKB): -17%; remaining binding at 1 µM [9, 14]: 75%; remaining binding at 1 µM [9, 15]: 75%; difference in %Control versus Ib at 1 µM ([10]; @1000nM): 4%; IC50 [13]: 24 ± 2 nM; remaining activity at 0.1 µM [13]: 4 ± 1%
79	79	98	98	100	100	2.3	2.3	83	83	79	79	94	94	77	77	96	96	19	69.9	COC(=O)c1cnc(S(C)(=O)=O)nc1N1CCCC(n2nc(-c3ccc(Oc4ccccc4)cc3)c3c(N)ncnc32)C1 (stereo not shown) [Compound 8b, Methyl 4-(3-(4-Amino-3-(4-phenoxyphenyl)-1H-pyrazolo[3,4-d]pyrimidin-1-yl)piperidin-1-yl)-2-(methylsulfonyl)pyrimidine-5-carboxylate]	remaining binding at 1 µM ([11]; @1000nM, read-out: %Control): 73%; remaining binding at 1 µM ([11]; read-out: %Control @1000nM): 73%; difference in % of control versus compound Ib at 1 µM ([12]; @1000nM): 41.5%; remaining binding at 1 µM ([12]; @1000nM, read-out: %Control): 42%; remaining binding at 1 µM ([12]; read-out: %Control @1000nM): 42%; %Control difference from compound Ib at 1 µM ([2]; @1000nM): 7%; difference in %Control from compound Ib at 1 µM ([3]; @1000nM): 4%; % of control difference from compound Ib at 1 µM ([4]; @1000nM): 2.3%; difference in %Control versus compound Ib at 1 µM ([5]; @1000nM): 22%; difference in %Control versus compound Ib at 1 µM ([6]; @1000nM): 69.7%; difference in %Control versus compound Ib at 1 µM ([9]; @1000nM, TRKB): 7%; remaining binding at 1 µM [9, 14]: 99%; remaining binding at 1 µM [9, 15]: 99%; difference in %Control versus Ib at 1 µM ([10]; @1000nM): 8%; IC50 [13]: 57 ± 1 nM; remaining activity at 0.1 µM [13]: 2 ± 1%
57	57	100	100	100	100	39	39	99	99	76	76	100	100	60	60	100	100	-3	63.9	CCOC(=O)c1cnc(S(C)(=O)=O)nc1N1CCC[C@@H](n2nc(-c3ccc(Oc4ccccc4)cc3)c3c(N)ncnc32)C1 [Compound 8c, Ethyl (R)-4-(3-(4-Amino-3-(4-phenoxyphenyl)-1H-pyrazolo[3,4-d]pyrimidin-1-yl)piperidin-1-yl)-2-(methylsulfonyl)pyrimidine-5-carboxylate]	remaining binding at 1 µM ([11]; @1000nM, read-out: %Control): 67%; remaining binding at 1 µM ([11]; read-out: %Control @1000nM): 67%; difference in % of control versus compound Ib at 1 µM ([12]; @1000nM): 72.5%; remaining binding at 1 µM ([12]; @1000nM, read-out: %Control): 73%; remaining binding at 1 µM ([12]; read-out: %Control @1000nM): 73%; %Control difference from compound Ib at 1 µM ([2]; @1000nM): 9%; difference in %Control from compound Ib at 1 µM ([3]; @1000nM): 4%; % of control difference from compound Ib at 1 µM ([4]; @1000nM): 39%; difference in %Control versus compound Ib at 1 µM ([5]; @1000nM): 38%; difference in %Control versus compound Ib at 1 µM ([6]; @1000nM): 66.7%; difference in %Control versus compound Ib at 1 µM ([9]; @1000nM, TRKB): -15%; remaining binding at 1 µM [9, 14]: 77%; remaining binding at 1 µM [9, 15]: 77%; difference in %Control versus Ib at 1 µM ([10]; @1000nM): 12%

SMILES	remaining binding at 1 µM ([1]; @1000nM, read-out: %Control) [%]	remaining binding at 1 µM ([1]; read-out: %Control @1000nM) [%]	remaining binding at 1 µM ([2]; @1000nM, read-out: %Control) [%]	remaining binding at 1 µM ([2]; read-out: %Control @1000nM) [%]	remaining binding at 1 µM ([3]; @1000nM, read-out: %Control) [%]	remaining binding at 1 µM ([3]; read-out: %Control @1000nM) [%]	remaining binding at 1 µM ([4]; @1000nM, read-out: %Control) [%]	remaining binding at 1 µM ([4]; read-out: %Control @1000nM) [%]	remaining binding at 1 µM ([5]; @1000nM, read-out: %Control) [%]	remaining binding at 1 µM ([5]; read-out: %Control @1000nM) [%]	remaining binding at 1 µM ([6]; @1000nM, read-out: %Control) [%]	remaining binding at 1 µM ([6]; read-out: %Control @1000nM) [%]	remaining binding at 1 µM ([7]; @1000nM, read-out: %Control) [%]	remaining binding at 1 µM ([7]; read-out: %Control @1000nM) [%]	remaining binding at 1 µM ([8]; @1000nM, read-out: %Control) [%]	remaining binding at 1 µM ([8]; read-out: %Control @1000nM) [%]	remaining binding at 1 µM ([10]; @1000nM, read-out: %Control) [%]	remaining binding at 1 µM ([10]; read-out: %Control @1000nM) [%]	difference in %Control from compound Ib at 1 µM ([1]; @1000nM) [%]	difference in %Control versus compound Ib at 1 µM ([11]; @1000nM) [%]	also measured
C=CC(=O)N1CCC[C@@H](n2nc(-c3ccc(Oc4ccccc4)cc3)c3c(N)ncnc32)C1 [Compound 1g, Ibrutinib, reference compound]	60	60	91	91	96	96	0	0	61	61	9.3	9.3	96	96	57	57	88	88	–	–	inhibition at 1 µM ([4]; read-out: % inhibition, ERBB3): > 99%; remaining binding at 1 µM ([9]; read-out: %Control): 92%; remaining binding at 1 µM ([9]; read-out: %Control @1000nM): 92%
